Assay results taken from US8067582B2 (Bristol-Myers Squibb Company, priority 2007, dated 2011).
Read-outs that look alike come from different tables or passages of the source.

Molecular target: T1, androgen receptor (AR) (Homo sapiens, UniProt P10275)
T1 sequence (P10275 1-920): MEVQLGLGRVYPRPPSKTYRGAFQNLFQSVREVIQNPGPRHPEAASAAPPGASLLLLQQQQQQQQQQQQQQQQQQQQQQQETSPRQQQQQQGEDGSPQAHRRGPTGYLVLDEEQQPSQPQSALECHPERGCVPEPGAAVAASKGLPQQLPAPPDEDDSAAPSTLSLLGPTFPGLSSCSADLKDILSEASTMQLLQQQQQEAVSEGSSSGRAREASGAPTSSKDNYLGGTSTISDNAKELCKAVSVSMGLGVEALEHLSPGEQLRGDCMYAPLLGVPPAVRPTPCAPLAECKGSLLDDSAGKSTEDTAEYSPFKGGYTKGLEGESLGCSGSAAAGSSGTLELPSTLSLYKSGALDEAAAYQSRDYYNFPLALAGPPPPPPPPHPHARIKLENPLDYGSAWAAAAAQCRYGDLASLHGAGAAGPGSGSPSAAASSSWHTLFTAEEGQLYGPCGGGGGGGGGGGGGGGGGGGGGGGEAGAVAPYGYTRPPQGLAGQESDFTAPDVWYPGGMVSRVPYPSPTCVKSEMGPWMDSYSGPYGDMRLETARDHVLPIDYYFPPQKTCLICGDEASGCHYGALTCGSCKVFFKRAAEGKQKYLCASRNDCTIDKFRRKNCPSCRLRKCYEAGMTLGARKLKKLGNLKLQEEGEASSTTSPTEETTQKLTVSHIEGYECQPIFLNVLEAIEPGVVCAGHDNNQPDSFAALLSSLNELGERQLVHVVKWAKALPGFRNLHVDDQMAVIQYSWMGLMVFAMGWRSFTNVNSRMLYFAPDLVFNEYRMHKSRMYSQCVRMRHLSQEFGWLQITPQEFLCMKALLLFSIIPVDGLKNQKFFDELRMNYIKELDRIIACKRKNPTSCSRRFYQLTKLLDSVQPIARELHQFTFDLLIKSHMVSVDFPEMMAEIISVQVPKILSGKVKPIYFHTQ
Assay: MDA-MB-453 Androgen Receptor Transactivation Assay (PSA-Luc reporter, 3 nM DHT)
Type: cell-based
Settings: MDA-MB-453 cells, antagonism in presence of 3 nM DHT, 48 hour incubation
Source text: Compounds can be tested in a cell based transactivation assay used to measure the antagonism of androgen receptor (AR) transcriptional activity. The transactivation assay provides a means of identifying antagonists that inhibit the effects of the native hormone dihydrotestosterone (DHT). […] The pGL3 PSA-Luc reporter plasmid is comprised of the cDNA for the firefly luciferase gene and the upstream promoter sequences containing the androgen response elements (AREs) of the prostate specific antigen (PSA). This plasmid functions as a reporter for the transcription-modulating activity of the AR. In order to detect antagonists, the transactivation assay is conducted in the presence of constant concentration of the natural AR hormone (DHT) to induce a defined reporter signal. Addition of increasing concentrations of the suspected antagonist will decrease the reporter signal (luciferase activity).
MDA-MB-453 and 22 RV1 cells were maintained in DMEM (Cellgro, Cat. #10-014-CM) or RPMI 1640 (Gibco Cat. #11875-085) respectively and supplemented with 10% FBS (Invitrogen/GIBCO Life Science). Cells were bulk transfected in flasks with 1.3 ug/ml pGL3 PSA-Luc plasmid by using the Lipofectamine 2000 Reagent (Invitrogen, Cat. #11668-019) and serum-free Opti-MEM I media (Invitrogen, Cat #31985-070) according to the manufacturer's optimized conditions. Transfection was conducted at 37° C. with 5% CO2 for 16-18 hours. Following transfection, cells are washed, treated with trypsin, counted, and seeded in a 96-well plate at 30,000 cells per well in DMEM containing 10% Charcoal/Dextran Treated Fetal Bovine Serum (Gibco Cat. #11054-020) for MDA-MB-453 cells or RPMI 1640 (Gibco Cat. #110835) containing 10% FBS (Invitrogen/GIBCO Life Science) for 22 RV1 cells.
Following transfection, cells were incubated in the absence (blank) or presence (control) of 3 nM DHT (Sigma, Cat. #A-8380) and in the presence or absence of the standard antiandrogen bicalutamide or test compounds ranging in concentrations from 10^−10 to 10^−5M. Duplicates were used for each sample. The compound dilutions were performed by the Tecan Genesis (Tecan, Triangle Park, N.C.). After a 48 hour incubation, luciferase activity was measured using the Steady-Glo Luciferase Assay System (Promega, Cat. #E2550) according to manufacturer's specifications and luminescence was measured on a Packard TopCount (PerkinElmer). For each luciferase sample reading, the percent control (in absence of compounds) was calculated as: % Control=100×[averagesample−averageblank]/[averagecontrol−averageblank] Data was plotted and the IC50 value was defined as the concentration of compound that inhibited 50% of the luciferase activity for the controls.
Compounds described herein were tested in the AR transactivation assay described immediately above, using MDA-MB-453 cells.

| Structure (SMILES) | IC50 | IC50 (read-out: IC50) |
| --- | --- | --- |
| C[C@@]12O[C@]3(CCO[C@@H]4[C@H]3[C@H]1C(=O)N4c1ccc(C#N)c(C(F)(F)F)c1)C[C@@H]2O (single isomer, unassigned) [Example 2] | 11 µM | – |
| CCNC(=O)[C@]12C(=O)N(c3ccc(C#N)c(C(F)(F)F)c3)[C@@H]3OCC[C@@]4(C[C@H](O)[C@]1(C)O4)[C@@H]32 (single isomer, unassigned) [Example 22] | > 7.5 µM | – |
| C[C@]12O[C@@]3(CCO[C@@]4(C)[C@@H]3[C@@H]1C(=O)N4c1ccc(C#N)c(C(F)(F)F)c1)C[C@H]2O (single isomer, unassigned) [Example 25] | > 7.5 µM | – |
| C[C@@]12O[C@]3(CCO[C@]4(C)[C@H]3[C@H]1C(=O)N4c1ccc(C#N)c(C(F)(F)F)c1)C[C@@H]2O (single isomer, unassigned) [Example 26] | > 7.5 µM | – |
| N#Cc1ccc(N2C(=O)[C@@H]3[C@@H]4[C@H]2OCC[C@@]42CC[C@@H]3O2)cc1C(F)(F)F (single isomer, unassigned) [Example 53] | 1.2 µM | – |
| N#Cc1ccc(N2C(=O)[C@@H]3[C@@H]4[C@H]2OCC[C@]42O[C@H]3C[C@H]2O)cc1C(F)(F)F (single isomer, unassigned) [Example 55] | 10.8 µM | – |
| N#Cc1ccc(N2C(=O)[C@H]3[C@H]4O[C@]5(CCO[C@@H]2[C@@H]35)C[C@@H]4O)cc1C(F)(F)F (single isomer, unassigned) [Example 57] | ≥ 7.5 µM | – |
| CC[C@]12C[C@@H](O)[C@@]3(CCO[C@@H]4[C@H]3[C@H]1C(=O)N4c1ccc(C#N)c(C(F)(F)F)c1)O2 (single isomer, unassigned) [Example 59] | ≥ 7.5 µM | – |
| CC[C@@]12O[C@]3(CCO[C@@H]4[C@H]3[C@H]1C(=O)N4c1ccc(C#N)c(C(F)(F)F)c1)C[C@@H]2O (single isomer, unassigned) [Example 61] | ≥ 7.5 µM | – |
| CC(=O)N[C@@H]1[C@@H](O)[C@]23CCO[C@@H]4[C@H]2[C@@H](C(=O)N4c2ccc(C#N)c(C(F)(F)F)c2)[C@@]1(C)O3 (stereo in doubt) [Example 254, N-((1S,2R,3R,4R,5R,8R,12S)-7-(4-cyano-3-(trifluoromethyl)phenyl)-2-hydroxy-4-methyl-6-oxo-9,13-dioxa-7-azatetracyclo[6.3.1.1^1,4.0^5,12]tridec-3-yl)acetamide] | 4.95 µM | – |
| C[C@@]12O[C@]3(CCO[C@@H]4[C@H]3[C@H]1C(=O)N4c1ccc(C#N)c(C(F)(F)F)c1)C[C@H]2N=[N+]=[N-] [Example 12, 4-((1S,3R,4R,5R,8R,12S)-3-azido-4-methyl-6-oxo-9,13-dioxa-7-azatetracyclo[6.3.1.1^1,4.0^5,12]tridec-7-yl)-2-(trifluoromethyl)benzonitrile] | > 7.5 µM | – |
| C[C@@]12O[C@]3(CCO[C@@H]4[C@H]3[C@H]1C(=O)N4c1ccc(C#N)c(C(F)(F)F)c1)C[C@H]2N [Example 13, 4-((1S,3R,4R,5R,8R,12S)-3-amino-4-methyl-6-oxo-9,13-dioxa-7-azatetracyclo[6.3.1.1^1,4.0^5,12]tridec-7-yl)-2-(trifluoromethyl)benzonitrile] | > 7.5 µM | – |
| C[C@@]12C[C@H](O)[C@]3(CCO[C@H]4[C@@H]3[C@@H]1C(=O)N4c1ccc(F)c(Cl)c1)O2 [Example 15, (1R,2S,4R,5S,8S,12R)-7-(3-chloro-4-fluorophenyl)-2-hydroxy-4-methyl-9,13-dioxa-7-azatetracyclo[6.3.1.1^1,4.0^5,12]tridecan-6-one] | – | 10.5 µM |
| C[C@@]12C[C@H](O)[C@]3(CCO[C@H]4[C@@H]3[C@]1(C(=O)OCc1ccccc1)C(=O)N4c1ccc(C#N)c(C(F)(F)F)c1)O2 [Example 23, Benzyl (1R,2S,4R,5R,8S,12R)-7-(4-cyano-3-(trifluoromethyl)phenyl)-2-hydroxy-4-methyl-6-oxo-9,13-dioxa-7-azatetracyclo[6.3.1.1^1,4.0^5,12]tridecane-5-carboxylate] | 1.2 µM | – |
| C[C@@]12C[C@H](O)[C@]3(CCO[C@H]4[C@@H]3[C@]1(CO)C(=O)N4c1ccc(C#N)c(C(F)(F)F)c1)O2 [Example 24, 4-((1R,2S,4R,5R,8S,12R)-2-hydroxy-5-(hydroxymethyl)-4-methyl-6-oxo-9,13-dioxa-7-azatetracyclo[6.3.1.1^1,4.0^5,12]tridec-7-yl)-2-(trifluoromethyl)benzonitrile] | 5.45 µM | – |
| C[C@@]12C[C@@](C)(O)[C@]3(CCO[C@H]4[C@@H]3[C@@H]1C(=O)N4c1ccc(C#N)c(C(F)(F)F)c1)O2 [Example 37, 4-((1R,2R,4R,5S,8S,12R)-2-hydroxy-2,4-dimethyl-6-oxo-9,13-dioxa-7-azatetracyclo[6.3.1.1^1,4.0^5,12]tridec-7-yl)-2-(trifluoromethyl)benzonitrile] | 1.16 µM | – |
| C[C@@]12C[C@H](O)[C@]3(CO[C@H]4[C@@H]3[C@@H]1C(=O)N4c1ccc(C#N)c(C(F)(F)F)c1)O2 [Example 38, 4-((1S,4S,7S,8R,10S,11R)-10-Hydroxy-8-methyl-6-oxo-3,12-dioxa-5-azatetracyclo[5.3.1.1^1,8.0^4,11]dodec-5-yl)-2-(trifluoromethyl)benzonitrile] | 1.09 µM | – |
| C[C@@]12C[C@H](N)[C@]3(CCO[C@H]4[C@@H]3[C@@H]1C(=O)N4c1ccc(C#N)c(Cl)c1)O2 [Example 45, 4-((1R,2S,4R,5S,8S,12R)-2-amino-4-methyl-6-oxo-9,13-dioxa-7-azatetracyclo[6.3.1.1^1,4.0^5,12]tridec-7-yl)-2-chlorobenzonitrile] | 12.8 µM | – |
| CNS(=O)(=O)N[C@H]1C[C@@]2(C)O[C@@]13CCO[C@H]1[C@@H]3[C@@H]2C(=O)N1c1ccc(C#N)c(Cl)c1 [Example 47, N-((1R,2S,4R,5S,8S,12R)-7-(3-Chloro-4-cyanophenyl)-4-methyl-6-oxo-9,13-dioxa-7-azatetracyclo[6.3.1.1^1,4.0^5,12]tridec-2-yl)-N′-methylsulfamide] | 1.61 µM | – |
| C[C@]12CC[C@@]3(CCO[C@@H]4[C@H]3[C@H]1C(=O)N4c1ccc(C#N)c(C(F)(F)F)c1)O2 [Example 51, 4-((1S,4S,5R,8R,12S)-4-methyl-6-oxo-9,13-dioxa-7-azatetracyclo[6.3.1.1^1,4.0^5,12]tridec-7-yl)-2-(trifluoromethyl)benzonitrile] | 1.81 µM | – |
| C[C@@]12C[C@H](O)[C@]3(CCO[C@H]4[C@@H]3[C@@H]1C(=O)N4c1cc(Cl)cc(Cl)c1)O2 [Example 117, (1R,2S,4R,5S,8S,12R)-7-(3,5-dichlorophenyl)-2-hydroxy-4-methyl-9,13-dioxa-7-azatetracyclo[6.3.1.1^1,4.0^5,12]tridecan-6-one] | – | 2.48 µM |
| C[C@]12O[C@@]3(CCO[C@H]4[C@@H]3[C@@H]1C(=O)N4c1ccc(C#N)c(F)c1)C[C@H]2O [Example 137, 2-Fluoro-4-((1S,3R,4S,5S,8S,12R)-3-hydroxy-4-methyl-6-oxo-9,13-dioxa-7-azatetracyclo[6.3.1.1^1,4.0^5,12]tridec-7-yl)benzonitrile] | – | 6.24 µM |
